{"source": "patent US20040132795A1", "about": "“Methods to screen and treat individuals with glaucoma or the propensity to develop glaucoma” (priority 2001, published 2004)", "format_in_all_cases": "in vivo, human", "key": {"[1]": {"test": "Treatment with diclofenac for 6 months in the presence of the TIGR mt-1 mutation, mean diurnal IOP", "description": "After treatment for 6 months with varying amounts of diclofenac in the presence of the mt-1 mutation, the following results are observed: […]"}, "[2]": {"test": "Treatment with diclofenac in glaucomic patients possessing both the mt-1 and mt-11 mutations, mean diurnal IOP", "conditions": "0.1% diclofenac"}, "[3]": {"test": "Treatment with diclofenac in glaucomic patients having the TIGRmt-11 mutation, mean diurnal IOP", "conditions": "0.1% diclofenac", "description": "The same procedures described in Example II were followed with respect to administering Diclofenac to glaucomic patients having the […]-11 mutation."}, "[4]": {"conditions": "0.03% diclofenac, mt-1 mutation present"}, "[5]": {"conditions": "0.06% diclofenac, mt-1 mutation present"}, "[6]": {"conditions": "0.1% diclofenac, mt-1 mutation present"}}, "data": [{"compound": "O=C(O)Cc1ccccc1Nc1c(Cl)cccc1Cl", "note": "[Diclofenac]", "values": [{"measurement": "Percentage of Patients Exhibiting a Decrease in Diurnal IOP >= 2 mm Hg After 6 Months of Treatment", "setting": "[1]; [4]", "result": 36, "unit": "%"}, {"measurement": "Percentage of subjects exhibiting a Mean Diurnel IOP < 22 mm Hg After 6 Months of Treatment", "setting": "[1]; [4]", "result": 55, "unit": "%"}, {"measurement": "Percentage of Patients Exhibiting a Decrease in Diurnal IOP >= 2 mm Hg After 6 Months of Treatment", "setting": "[1]; [5]", "result": 40, "unit": "%"}, {"measurement": "Percentage of subjects exhibiting a Mean Diurnel IOP < 22 mm Hg After 6 Months of Treatment", "setting": "[1]; [5]", "result": 60, "unit": "%"}, {"measurement": "Mean Change in Diurnal IOP at 6 Months", "setting": "[1]; 0.1% diclofenac, mt-1 mutation absent", "result": "−1.5", "unit": "mm Hg"}, {"measurement": "Mean Change in Diurnal IOP at 6 Months", "setting": "[1]; [6]", "result": "−2.1", "unit": "mm Hg"}, {"measurement": "Percentage of Patients Exhibiting a Decrease in Diurnal IOP >= 2 mm Hg After 6 Months of Treatment", "setting": "[1]; [6]", "result": 64, "unit": "%"}, {"measurement": "Percentage of subjects exhibiting a Mean Diurnel IOP < 22 mm Hg After 6 Months of Treatment", "setting": "[1]; [6]", "result": 64, "unit": "%"}, {"measurement": "Mean Change in Diurnal IOP at 6 Months", "setting": "[2]; mt-1 and mt-11 mutations absent", "result": "−0.6", "unit": "mm Hg"}, {"measurement": "Mean Change in Diurnal IOP at 6 Months", "setting": "[2]; mt-1 and mt-11 mutations present", "result": "−2.9", "unit": "mm Hg"}, {"measurement": "Mean Change in Diurnal IOP at 6 Months", "setting": "[3]; mt-11 mutation absent", "result": "−1.3", "unit": "mm Hg"}, {"measurement": "Mean Change in Diurnal IOP at 6 Months", "setting": "[3]; mt-11 mutation present", "result": "−2.0", "unit": "mm Hg"}]}]}
